4 molecules from ChEMBL document CHEMBL1159183, “Non-peptide itam mimics as ZAP-70 antagonists” (Bioorg Med Chem Lett, 1997) can be followed below.

Experiment [1] deals with Jurkat. Description: Cellular activity was measured by an IL-2 luciferase reporter gene assay on a Jurkat human T cell line activated by anti-CD28 and anti-TCR antibodies. The format is functional, cell-based.
Experiment [2] has as its target T1, Tyrosine-protein kinase ZAP-70 (Homo sapiens, UniProt P43403).
T1 sequence (P43403 whole entry): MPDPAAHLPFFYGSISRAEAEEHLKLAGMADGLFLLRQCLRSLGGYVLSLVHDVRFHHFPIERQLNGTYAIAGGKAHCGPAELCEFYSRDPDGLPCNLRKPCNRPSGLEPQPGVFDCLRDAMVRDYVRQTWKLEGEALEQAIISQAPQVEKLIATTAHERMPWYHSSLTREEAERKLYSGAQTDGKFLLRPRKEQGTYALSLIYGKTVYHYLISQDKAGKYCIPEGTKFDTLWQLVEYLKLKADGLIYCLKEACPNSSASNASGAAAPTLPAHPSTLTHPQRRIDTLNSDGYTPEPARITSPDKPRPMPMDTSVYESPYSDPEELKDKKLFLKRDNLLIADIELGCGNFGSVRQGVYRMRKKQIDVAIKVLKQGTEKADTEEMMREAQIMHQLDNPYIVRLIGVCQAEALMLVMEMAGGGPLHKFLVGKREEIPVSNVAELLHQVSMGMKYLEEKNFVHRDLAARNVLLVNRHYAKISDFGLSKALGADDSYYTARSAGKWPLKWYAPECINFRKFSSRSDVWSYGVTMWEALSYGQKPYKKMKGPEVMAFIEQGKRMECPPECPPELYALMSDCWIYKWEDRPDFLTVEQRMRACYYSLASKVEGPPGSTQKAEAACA
Description: Antagonistic activity against SH2 domain of Zeta-chain (TCR) associated protein kinase, ZAP-70. The format is functional.

A word on the IC50: it is the concentration that gives 50% inhibition. Read a high IC50 as lower potency. In the case of `CCCCCC(=O)N(Cc1ccc(CP(=O)(O)O)cc1)[C@H]1CC[C@H]2[C@@H]3CCc4cc(OCCCOc5ccc6c(c5)CC[C@@H]5[C@@H]6CC[C@]6(C)[C@@H](N(Cc7ccc(CP(=O)(O)O)cc7)C(=O)CCCCC)CC[C@@H]56)ccc4[C@H]3CC[C@]12C`, the IC50 in experiment [1] stood at 26500 nM; in experiment [2], 320 nM.
On the same counts, the results for `CCCCCC(=O)N(Cc1ccc(CP(=O)(O)O)cc1)[C@H]1CC[C@H]2[C@@H]3CCc4cc(OCCC)ccc4[C@H]3CC[C@]12C` are 3600 nM and 3200 nM.
As for `CCCCCC(=O)N(Cc1ccc(C(F)(F)P(=O)(O)O)cc1)[C@H]1CC[C@H]2[C@@H]3CCc4cc(OCCCOc5ccc6c(c5)CC[C@@H]5[C@@H]6CC[C@]6(C)[C@@H](N(Cc7ccc(C(F)(F)P(=O)(O)O)cc7)C(=O)CCCCC)CC[C@@H]56)ccc4[C@H]3CC[C@]12C`, the values for the IC50 in experiment [1] and in experiment [2] were 1900 nM and 250 nM, respectively.
The corresponding values for `CCCCCC(=O)N(Cc1ccc(C(F)(F)P(=O)(O)O)cc1)[C@H]1CC[C@H]2[C@@H]3CCc4cc(OCCC)ccc4[C@H]3CC[C@]12C` are 900 nM and 1900 nM.
